From patent publication US12514851B2, “Use of 2,3,5-substituted thiophene compound for preventing, ameliorating, or treating ovarian cancer” (PHAROS IBIO CO., LTD, priority 2020, dated 2026)

Key:
Format in all cases: cell-based
[1] = system: SK-OV-3 ovarian cancer cell line; experiment: Inhibitory activity against ovarian cancer cell lines, agents alone (Celltiter glo cell viability); conditions: SK-OV3
Procedure: (§5) In 100-mm culture dishes (SPL) at 37° C. under 5% CO2, the CAOV3 ovarian cancer cell line was cultured using DMEM (Dulbeco's Modified Eagle Medium), and the OVCAR3, SK-OV-3 and SW626 ovarian cancer cell lines were cultured using RPMI1640 medium. Thereafter, each cell line was diluted to 3,000 cells/80 μl using PBS (phosphate-buffered saline) (Biosesang).
(§6) After incubation, the cells were counted using a Celltiter glo assay kit (Promega), and cell viability was measured by expressing the cell count as a percentage relative to that of a control group not treated with PHI-101 or the anticancer agent.

[2] = system: CAOV3 ovarian cancer cell line; experiment: as above
Procedure: as §5, §6

[3] = system: OVCAR3 ovarian cancer cell line; experiment: as above
Procedure: as §5, §6

[4] = system: SW626 ovarian cancer cell line; experiment: as above
Procedure: as §5, §6

[5] = system: OVCAR3 ovarian cancer cell line; experiment: Synergistic effect of PHI-101 and olaparib (Celltiter glo viability, Combination Index by CalcuSyn); conditions: Homo sapiens, OVCAR-3, Table 7, combination index experiment, 72 hours
Procedure: (§1) In order to establish the concentrations of PHI-101 and olaparib which are in an integer ratio in the combination index experiment, based on the IC50 value of olaparib relative to the relatively low IC50 value (1×) of PHI-101, the integer ratio between PHI-101 and olaparib was obtained as shown in Table 4 below.
(§2) Each prepared 10× solution was serially diluted at 1:2 in each of six E-tubes, each containing 150 μl of medium. Then, a PHI-101 96-well plate (FIG. 4) and an olaparib 96-well plate (FIG. 5) were prepared separately, and 30 μl of the serially diluted PHI-101 or olaparib was dispensed into each well of the corresponding plate. 30 μl of medium was dispensed into each well not containing the substance.
(§3) Then, each well was incubated at 37° C. under 5% CO2 for 72 hours, and each experiment was performed in triplicate.
(§4) Next, using the CalcuSyn software and based on the Combination Index (CI) shown in Table 8, the CI for each ovarian cancer cell line depending on the treatment concentrations of PHI-101 and olaparib was calculated, and whether there was synergism between the substances was evaluated.

[6] = system: SK-OV3 ovarian cancer cell line; experiment: as above; conditions: Homo sapiens, SK-OV-3, Table 7, combination index experiment, 72 hours
Procedure: as §1, §2, §3, §4

[7] = system: CAOV3 ovarian cancer cell line; experiment: as above; conditions: Homo sapiens, Caov-3, Table 7, combination index experiment, 72 hours
Procedure: as §1, §2, §3, §4

[8] = system: TP53-mutant ovarian cancer cell lines; experiment: Selective inhibitory activity against TP53-mutant ovarian cancer cell lines; conditions: TP53-mutant versus non-mutant ovarian cancer cell lines (Table 2)
Excerpt: In order to evaluate the selective inhibitory activity of PHI-101, the characteristics of each cell line and the inhibitory activity of PHI-101 against ovarian cancer cell lines were investigated as shown in Table 2 below.

[9] = Homo sapiens, SK-OV-3, agent alone, 72 hours
[10] = Homo sapiens, Caov-3, agent alone, 72 hours
[11] = Homo sapiens, OVCAR-3, agent alone, 72 hours
[12] = Homo sapiens, agent alone, 72 hours

Compound	IC50 [1, 9] [µM]	IC50 [2, 10] [µM]	IC50 [3, 11] [µM]	IC50 [4, 12] [µM]	IC50 [5] [µM]	IC50 [6] [µM]	IC50 [7] [µM]	also measured
CC[C@@]1(O)C(=O)OCc2c1cc1n(c2=O)Cc2cc3c(CN(C)C)c(O)ccc3nc2-1 [Topotecan, topotecan]	3.7	3.9	8.3	14.4				
N.N.[Cl][Pt][Cl] [Cisplatin, cisplatin]								IC50 ([1]; agent alone, 72 hours): 12.3 µM; IC50 ([2]; agent alone, 72 hours): 3.5 µM; IC50 ([3]; agent alone, 72 hours): 4.4 µM; IC50 ([4]; agent alone, 72 hours): 8 µM
O=C(c1cc(Cc2n[nH]c(=O)c3ccccc23)ccc1F)N1CCN(C(=O)C2CC2)CC1 [Olaparib, olaparib]	114	59.7	96.5	147	96.5	114	59.7	

The next lines start with results.

IC50 [1, 9] [µM]	IC50 [2, 10] [µM]	IC50 [3, 11] [µM]	IC50 [4, 12] [µM]	IC50 [5] [µM]	IC50 [6] [µM]	IC50 [7] [µM]	Compound	also measured
114	3.6	5.7	29.8				CC(=O)O[C@H]1C(=O)[C@@]2(C)[C@H]([C@H](OC(=O)c3ccccc3)[C@]3(O)C[C@H](OC(=O)[C@H](O)[C@@H](NC(=O)c4ccccc4)c4ccccc4)C(C)=C1C3(C)C)[C@]1(OC(C)=O)CO[C@@H]1C[C@@H]2O [Paclitaxel, paclitaxel]	
5.6	0.5	2.7	3.6	3.5	4.39	0.873	NC(=O)Nc1cc(C#Cc2cccc(F)c2)sc1C(=O)N[C@H]1CCCNC1 [PHI-101, (S)-5-((3-fluorophenyl)ethynyl)-N-(piperidin-3-yl)-3-ureido thiophene-2-carboxamide]	IC50 ([1]; Homo sapiens, SK-OV-3, Table 4, values used to establish treatment starting concentrations): 5.6 µM; IC50 ([2]; Homo sapiens, Caov-3, Table 4, values used to establish treatment starting concentrations): 0.523 µM; selective inhibitory activity [8]: better inhibitory activity against the TP53-mutant ovarian cancer cell lines; IC50 ([3]; Homo sapiens, OVCAR-3, Table 4, values used to establish treatment starting concentrations): 2.76 µM; IC50 ([4]; Homo sapiens, Table 4, values used to establish treatment starting concentrations): 3.64 µM
		6.3					COc1cccc(OCCCN)c1-c1cc(Nc2cnc(C#N)cn2)n[nH]1 [Prexasertib, prexasertib]	
